For one experiment, the target named is T1, CysLT1 receptor (Homo sapiens, UniProt Q9Y271).
T1 construct: expressed in transfected cells; host or cells: CHO-K1
T1 sequence (Q9Y271 1-337): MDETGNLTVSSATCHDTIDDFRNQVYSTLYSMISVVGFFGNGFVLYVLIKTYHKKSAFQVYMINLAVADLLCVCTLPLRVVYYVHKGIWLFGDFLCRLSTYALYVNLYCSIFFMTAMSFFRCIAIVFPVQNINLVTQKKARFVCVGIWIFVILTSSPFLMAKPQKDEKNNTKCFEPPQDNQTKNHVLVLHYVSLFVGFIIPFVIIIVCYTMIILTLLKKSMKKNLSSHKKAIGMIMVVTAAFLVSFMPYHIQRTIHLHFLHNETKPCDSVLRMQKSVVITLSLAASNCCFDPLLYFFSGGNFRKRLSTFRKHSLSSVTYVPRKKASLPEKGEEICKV
In words: Human cysteinyl leukotriene receptor 1 (CysLT1) radioligand binding assay. As to conditions: 10 μM concentration; CHO-K1 cells. As for the experimental part: (§1) All compounds were dissolved in dimethyl sulfoxide (DMSO). Final concentration of the DMSO in all tests was 1% (v/v). Inhibition in all tests is considered preferred if it exceeds 50% at 10 μM concentration (or less).
CysLT1 receptor is involved in immune diseases such as asthma, and has clinical significance as a point of intervention in asthma therapy. CysLT1 receptor is expressed in CHO-K1 cells (Chinese hamster ovary cells K1 clone). This is a competitive radioligand binding assay where substances compete with [^3H]-labeled Leulcotirene D4 (LTD4). Radioactive substance is measured with scintillation counting. Percentage of inhibition is calculated from the total radioactivity of the sample.

The target in the next experiment is T2, human PDE3 (Homo sapiens, UniProt Q14432).
T2 construct: Isolated human platelets are pre-incubated at 25° C; from tissue; host or cells: human platelets
T2 sequence (Q14432 whole entry): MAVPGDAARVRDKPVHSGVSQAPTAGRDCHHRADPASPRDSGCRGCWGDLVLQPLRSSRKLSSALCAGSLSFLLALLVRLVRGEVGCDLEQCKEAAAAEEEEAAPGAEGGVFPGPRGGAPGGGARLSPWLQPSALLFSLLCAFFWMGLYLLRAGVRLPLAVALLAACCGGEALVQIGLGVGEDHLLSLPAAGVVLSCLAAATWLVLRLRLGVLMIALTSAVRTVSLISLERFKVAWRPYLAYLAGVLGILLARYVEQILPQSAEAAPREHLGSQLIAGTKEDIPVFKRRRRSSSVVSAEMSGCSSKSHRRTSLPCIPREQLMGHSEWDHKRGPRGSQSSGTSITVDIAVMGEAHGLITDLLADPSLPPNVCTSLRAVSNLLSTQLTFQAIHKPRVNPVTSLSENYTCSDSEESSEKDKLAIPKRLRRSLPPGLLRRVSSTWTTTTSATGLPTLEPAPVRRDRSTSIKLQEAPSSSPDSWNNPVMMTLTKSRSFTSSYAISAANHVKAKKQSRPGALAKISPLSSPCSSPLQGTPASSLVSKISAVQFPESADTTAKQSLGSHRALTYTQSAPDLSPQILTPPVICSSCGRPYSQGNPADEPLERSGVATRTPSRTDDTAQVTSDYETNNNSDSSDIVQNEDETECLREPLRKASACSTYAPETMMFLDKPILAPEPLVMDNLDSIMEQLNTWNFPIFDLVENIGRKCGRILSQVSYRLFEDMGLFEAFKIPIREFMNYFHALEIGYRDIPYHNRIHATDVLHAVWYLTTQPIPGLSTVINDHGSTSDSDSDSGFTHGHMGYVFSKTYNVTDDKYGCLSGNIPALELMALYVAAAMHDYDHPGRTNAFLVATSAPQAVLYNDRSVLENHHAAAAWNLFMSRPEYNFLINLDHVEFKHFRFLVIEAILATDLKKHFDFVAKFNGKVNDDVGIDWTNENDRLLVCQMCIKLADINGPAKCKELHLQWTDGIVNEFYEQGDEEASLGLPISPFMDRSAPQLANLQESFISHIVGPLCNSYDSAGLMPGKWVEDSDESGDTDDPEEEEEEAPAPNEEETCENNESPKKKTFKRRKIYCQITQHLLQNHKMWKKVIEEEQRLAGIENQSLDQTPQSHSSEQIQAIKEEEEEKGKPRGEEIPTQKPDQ
Kind of experiment: Human PDE3 assay (platelets). As to conditions: 10 μM concentration. The experiment is classed as biochemical. The procedure:
as §1
PDE3 assay. Isolated human platelets are pre-incubated at 25° C. in Tris-HCl buffer containing magnesium ions for 15 minutes. 1.01 μM tritium labeled cyclic adenosine monophosphate (cAMP) is added as substrate, followed by incubation at 25° C. for 20 minutes. Percentage of inhibition is calculated by comparing the adenosine levels in supernatant which is formed from cAMP in treated versus control cells.

A further experiment has as its system CD1 mice. Kind of experiment: PMA induced ear oedema in CD1 mice. The experiment is classed as in vivo, mouse. As to conditions: topical, single dose of 250 or 100 μg/15 μL/ear; statistically significant vs positive control. The procedure: Male CD1 mice (Iffa Credo, France) weighing ˜35-40 g were randomly grouped (n=8 in vehicle treated test group, dexamethasone treated control group as well as in groups treated with compounds to be assayed). Test compounds, dexamethasone as well as vehicle (Trans-phase Delivery System, containing benzyl alcohol 10%, acetone 40% and isopropanol 50%) (all from Kemika, Croatia), were administered topically to the internal surface of the left ear thirty minutes prior to administration of phorbol 12-myristate 13-acetate (PMA) (Alexis biochemicals, USA). Test compounds were administered at a single dose of 250 or 100 μg/15 μL/ear and dexamethasone at a single dose of 50 μg/15 μL/ear. Thirty minutes later, 0.01% PMA solution in acetone was applied topically to the same area of each animal in a volume of 12 μL/ear. During the treatment and challenge, animals were anaesthetized by using inhalation anaesthesia. Six hours after the challenge, animals were euthanized by asphyxiation in 100% CO2 atmosphere. For assessing the auricular oedema, 8 mm discs were cut out of left and right auricular pinna and weighed. The degree of oedema was calculated by subtracting the weight of 8 mm disc of the untreated ear from that of the treated contralateral ear.

Another experiment has as its system Balb/C mice. In words: Ovalbumin induced pulmonary eosinophilia in mice. Format: in vivo, mouse. As to conditions: OVA sensitized and challenged mice; i.n., i.p. or per os. As for the experimental part:
Male Balb/C mice with a body weight of 20-25 g are randomly divided into groups, and sensitized by an i.p. injection of ovalbumin (OVA, Sigma) on day zero and day fourteen. On the twentieth day, the mice are subjected to a challenge test by i.n. (intranasal) application of OVA (positive control or test groups) or PBS (negative control). The compounds are administered daily i.n., i.p. or per os in different doses starting 2 days before the challenge and up to the completion of the test. Compounds are administered as suspension either in PBS, methyl cellulose or carboxymethyl cellulose with addition od DMSO (up to 5% of the total volume). 48 hours after i.n. application of OVA, the animals are then anaesthetized to obtain bronchoalveolar lavage fluid (BALF), which is used to determine total protein concentration as well as concentrations of cytokines such as IL-1β and TNF-α, absolute number of cells, and percentage of eosinophils in BALF. Bronchoalveolar lavage (BAL) is performed by infusing 1 mL of PBS divided into 3 separate volumes (0.4, 0.3 and 0.3 ml) through trachea into the lungs. The fluid is immediately withdrawn and the cell suspension stored into previously prepared 1.5 mL Eppendorf tube. Bronchoalveolar lavage fluid (BALF) is then centrifuged at […] for 5 min (4° C.). Cells are resuspended in 700 μL of PBS. To prepare cytospins, 320 μL of suspension is centrifuged at 250 rpm for 10 min (Cytospin-3, Shandon Instruments). Cells are stained with Dif-Quik (Dade Behring) to determine percentage of eosinophils by counting of at least 100 cells. The remaining resuspended cells are used for total cell count in BALF analysis (Sysmex SF 3000). Finally, lungs are sampled and stored into 10% formalin for pathohistological evaluation of eosinophil and mononuclear infiltrate. Accumulation of eosinophils and mononuclear cells in peribronchial (PB) and perivascular (PV) lung tissue areas and in alveolar spaces is monitored.
Results can be expressed as (I) decrease of absolute cell number per mL in BALF, (II) decrease of number of eosinophils per mL in BALF, (III) reduction of relative number (percentage) of eosinophils in BALF, (IV) reduction of cytokine concentrations in BALF, as well as (V) suppression of accumulation of eosinophils and mononuclear cells in peribronchial (PB) and perivascular (PV) lung tissue areas and in alveolar spaces by pathohistological scoring of treated animals compared to positive control (OVA stimulated, but untreated animals).
Fluticasone and beclomethasone are used as standard anti-inflammatory substances, and compared for ability to inhibit eosinophilia to the negative and positive controls.

Turning to `CC(=O)C(c1c(O)c2cccc(C(C)C)c2oc1=O)c1c(O)c2cccc(C(C)C)c2oc1=O` [Example 19], the “CysLT1 receptor, competition with [3H]-LTD4” value (“CysLT1 receptor, competition” below) on CysLT1 receptor is “significantly relevant activity”. Moreover, at human PDE3, the “inhibition of human PDE3 activity” value is reported as “significantly inhibited”. In addition, the “suppression of ear oedema” value with CD1 mice is listed as “considered active”. In the experiment with Balb/C mice, the “reduction of percentage of eosinophils and/or their total number in BALF and/or by histological scoring” value is listed as “statistically significant reduction”.

Regarding `CC(C)c1cccc2c(O)c(C(CO)c3c(O)c4cccc(C(C)C)c4oc3=O)c(=O)oc12` [Example 30], on CysLT1 receptor, the “CysLT1 receptor, competition” value is listed as “significantly relevant activity”. The “inhibition of human PDE3 activity” value on human PDE3 is “significantly inhibited”. Further, the “suppression of ear oedema” value in the experiment with CD1 mice is reported as “considered active”. The “reduction of percentage of eosinophils and/or their total number in BALF and/or by histological scoring” value in the experiment with Balb/C mice is reported as “statistically significant reduction”.

With `CC(C)c1cccc2c(O)c(C(C(=O)OCCO)c3c(O)c4cccc(C(C)C)c4oc3=O)c(=O)oc12` [Example 50], at CysLT1 receptor, the “CysLT1 receptor, competition” value is on record as “significantly relevant activity”. The “inhibition of human PDE3 activity” value at human PDE3 is reported as “significantly inhibited”. The “suppression of ear oedema” value in the experiment with CD1 mice was “considered active”. Moreover, in the experiment on Balb/C mice, the “reduction of percentage of eosinophils and/or their total number in BALF and/or by histological scoring” value is “statistically significant reduction”.

For the origin of these results see patent US20080153872A1, “Bis-(Coumarin) Compounds With Anti-Inflammatory Activity” (priority 2005, published 2008).
